Converted amounts (≈) assume the structure as drawn. The source made the active and inactive calls. The calls are words filed in the database; no cut-off is given here.

For two compounds, IC50, Activity and MIC results are on record in ChEMBL document CHEMBL3352628, “Stereochemical modification of geminal dialkyl substituents on pantothenamides alters antimicrobial activity” (Bioorg Med Chem Lett, 2014).

Data set [1] deals with Plasmodium falciparum. The experiment in a line: Antimicrobial activity against chloroquine-sensitive Plasmodium falciparum 3D7 ring stage parasite assessed as reduction in parasite proliferation after 96 hrs in presence of 1 uM pantothenate by SYBR Safe DNA gel staining based assay. Format: functional, organism-based. To be noted: 3D7, 96 h.
In data set [2] the test system is HFF. The experiment in a line: Cytotoxicity against HFF cells at 1 to 100 uM after 48 hrs by SYBR Safe DNA gel staining based assay. As to conditions: human. The class given is cell-based.
For data set [3], the system named is Plasmodium falciparum. The experiment in a line: Antimicrobial activity against chloroquine-sensitive Plasmodium falciparum 3D7 ring stage parasite assessed as reduction in parasite proliferation after 96 hrs in presence of 50 uM pantothenate by SYBR Safe DNA gel staining based assay. Format: functional, organism-based. As to conditions: 3D7, 96 h.
Data set [4] deals with Staphylococcus aureus. Put plainly: Antimicrobial activity against oxacillin-susceptible Staphylococcus aureus ATCC 29213 at 500 uM after 18 hrs by microdilution broth method. The class given is functional, organism-based.
The subject of data set [5] is Staphylococcus aureus. Put plainly: Antimicrobial activity against oxacillin-susceptible Staphylococcus aureus ATCC 29213 after 18 hrs by microdilution broth method. Format: functional. As to conditions: ATCC 29213, 18 h.
The subject of data set [6] is Staphylococcus aureus. The experiment in a line: Antimicrobial activity against oxacillin-resistant Staphylococcus aureus 43300 at 500 uM after 18 hrs by microdilution broth method. The class given is functional, organism-based.
The test system of data set [7] is Staphylococcus aureus. The experiment in a line: Antimicrobial activity against oxacillin-resistant Staphylococcus aureus 43300 after 18 hrs by microdilution broth method. Format: functional. To be noted: Staphylococcus aureus, 43300, 18 h.

In the case of `C=CC[C@](C)(CO)[C@@H](O)C(=O)NCCC(=O)NCCCCC`, the IC50 (in general, the concentration that inhibits the measured activity by half) in data set [1] amounted to 31 µM. Further, in data set [2], the Activity entry is “Non-toxic”.

As to `C=CC[C@@](C)(CO)[C@@H](O)C(=O)NCCC(=O)NCCCCC`, the results for the IC50 in data set [3] and in data set [1] were 13 µM and 2.4 µM, respectively. For the same compound, the outcome in data set [4] and in data set [6] was inactive. Also, the Activity result in data set [2] is “Non-toxic”. Also, the MIC in data set [5] and in data set [7] was 3.2 µM (≈ 1.01 µg/mL) each time.
